Values of other authors in patent publication US20040106141A1, “Methods and materials for examining pathways associated with glioblastoma progression” (The Regents of the University of California, priority 2002, published 2004).

System: SKMG-3 cells
Details: unstimulated SKMG-3 cells

## CNc1cc2c(Nc3cccc(Br)c3)ncnc2cn1 [PD158780]
  constitutive phosphorylation of Erk: reduces
GBM cell line with EGFR gene amplification
  constitutive phosphorylation of the receptor (EGFR): reduces
